Some results are limits rather than exact numbers.

The target in experiment [1] is T1, N-type calcium channel (NTCC) (Homo sapiens, UniProt Q00975).
T1 construct: endogenous in cells; host or cells: IMR32 cells (ATCC), differentiated with dibutyryl cAMP and bromodeoxyuridine
The experiment in a line: FLIPR calcium mobilization assay for N-type calcium channel. As to conditions: calcium mobilization in vitro assay; differentiated IMR32 cells, 90 mM KCl, 5 μM nitrendipine. The experiment is classed as cell-based. Here is the method: Cell maintenance and differentiation. Unless noted otherwise, cell culture reagents were purchased from Mediatech of Hemdon, Md. IMR32 cells (American Type Culture Collection, ATCC, Manassas, Va.) were routinely cultured in growth medium consisting of minimum essential medium containing 10% fetal bovine serum (FBS, Hyclone, Logan, Utah), 100 U/mL penicillin, 100 μg/mL streptomycin, 2 mM L-glutamine, 1 mM sodium pyruvate, and 1×MEM non-essential amino acids. 80-90% confluent flasks of cells were differentiated using the following differentiation medium: Growth medium plus 1 mM dibutyryl cyclic AMP (Sigma, St. Louis, Mo.), and 2.5 μM bromodeoxyuridine (Sigma). Cells were differentiated for 8 days by replacing differentiation medium every 2-3 days.
FLIPR Calcium Mobilization Assay for N-type Calcium Channel. One day prior to performing this assay, differentiated IMR32 cells were treated with 1× CellStripper, and seeded on poly-D-lysine-coated 96-well clear-bottom black plates (Becton Dickinson, Franklin Lakes, N.J.) at 200,000 cells/well. On the day of the assay, the cell plates were washed with IMR32 buffer (127 mM NaCl, 1 mM KCl, 2 mM MgCl2, 700 μM NaH2PO4, 5 mM CaCl2, 5 mM NaHCO3, 8 mM HEPES, 10 mM glucose, pH 7.4), then pre-stimulated with KCl and loaded as follows: 0.05 mL of IMR32 buffer, 0.05 mL of each compound tested diluted in IMR32 buffer containing 20 μM nitrendipine (Sigma), and 0.1 mL KCl dissolved in IMR32 buffer, plus Fluo-4 were added (3 μM final concentration, Molecular Probes, Eugene, Oreg.). Final test compound concentrations ranged from about 846 μM to about 17 μM, final nitrendipine concentration was 5 μM, and final KCl concentration was 90 mM. After 1 hour, the cells were washed twice with 0.05 mL of each compound tested in nitrendipine-containing IMR32 buffer (no KCl or Fluo-4), and then replaced with 0.1 mL of each compound tested in nitrendipine-containing IMR32 buffer. Plates were then transferred to a Fluorimetric Imaging Plate Reader (FLIPR^96, Molecular Devices, Inc., Sunnyvale, Calif.) for assay. The FLIPR measured basal Fluo-4 fluorescence for 315 seconds (i.e., 5 minutes and 15 seconds), then added 0.1 mL KCl agonist dissolved in IMR32 buffer and measured fluorescence for another 45 seconds. Final test compound concentrations on the cells after FLIPR read ranged from about 846 μM to about 17 μM, final nitrendipine concentration was 5 μM, and final KCl concentration was 90 mM. Data were collected over the entire time course and analyzed using Excel, Graph Pad Prism (version 3.02, Graph Pad, San Diego, Calif.), or an in-house non-linear regression analysis software.

The target of experiment [2] is T2, recombinant rat L-type calcium channel (LTCC) subunits (α1c, α2δ, and β1) (Rattus norvegicus, UniProt P22002).
T2 construct: expressed in transfected cells; pcDNA6.2DEST α1c, pcDNA3.2DEST β1, pcDNA3.1-Zeo α2δ)
The experiment in a line: FLIPR calcium mobilization assay for L-type calcium channel. It is filed as cell-based. As to conditions: calcium mobilization in vitro assay; HEK293 cells stably expressing LTCC, 90 mM KCl. Here is the method: Recombinant human embryonal kidney cells (HEK293, ATCC) stably transfected with either N-type calcium channel (NTCC) subunits (α1b, α2δ, and β3) or L-type calcium channel (LTCC) subunits (α1c, α2δ, and β1) were routinely cultured in growth medium consisting of Dulbecco's Modified Eagles Medium containing 10% FBS, 100 U/mL penicillin, 100 μg/mL streptomycin, 4 mM L-glutamine, 500 μg/mL geneticin (G418), 20 μg/mL Blasticidin S (InVivogen, San Diego, Calif.) and 500 μg/mL zeocin (InVivogen).
FLIPR Calcium Mobilization Assay for L-type Calcium Channel. One day prior to performing this assay, HEK293 cells stably expressing recombinant rat L-type calcium channel (LTCC) subunits (α1c, α2δ, and β1) were trypsinized, then seeded on poly-D-lysine-coated 96-well clear-bottom black plates (Becton Dickinson, Franklin Lakes, N.J.) at 75,000 cells/well. On the day of the assay, the plates were washed with LTCC wash buffer (127 mM NaCl, 2 mM MgCl2, 700 μM NaH2PO4, 5 mM CaCl2, 5 mM NaHCO3, 8 mM HEPES, 10 mM glucose, pH 7.4), then loaded with 0.1 mL of LTCC wash buffer containing Fluo-4 (3 μM final concentration, Molecular Probes, Eugene, Oreg.). After 1 hour, the cells were washed with 0.1 mL LTCC wash buffer and resuspended in 0.05 mL LTCC assay buffer (same composition as LTCC wash buffer). Plates were then transferred to a FLIPR^96 for assay. The FLIPR measured basal Fluo-4 fluorescence for 15 seconds, then added 0.05 mL of each compound tested diluted in LTCC assay buffer at final concentrations ranging from about 846 pM to about 17 μM. Fluo-4 fluorescence was then measured for 5 minutes. 0.1 mL KCl agonist dissolved in LTCC assay buffer was then added to the cells to produce a final concentration of 90 mM KCl, and fluorescence was measured for another 45 seconds. Data were collected over the entire time course and analyzed using Excel, Graph Pad Prism, or an in-house regression analysis software.
L-type Recombinant Cell Line Development. L-type calcium channel expressing HEK-293 cells were created in two stages. Stage 1 was created as follows. The rat α1c, and β1 cDNA expression constructs (2.5 μg each) were co-transfected into human embryonic kidney (HEK-293) cells by Lipofectamine Plus reagent (Invitrogen), as per manufacturer's instructions. 24 hours later, cells were split in limiting dilution into multiple 96-well plates in selection media containing 20 μg/mL blasticidin and 500 μg/mL geneticin, and incubated for 3 weeks at 37° C., 5% CO2, 95% humidity. Plates containing ≦1 clone per well were cultured until wells positive for single clones were confluent. Individual clones were then arrayed into columns of a destination 96-well plate, and partly split into 6-well plates for culture maintenance. Array plates were washed once with LTCC wash (or assay) buffer and cells loaded for 1 hour with 0.1 mL of LTCC buffer containing Fluo-4 (3 μM final concentration, Molecular Probes). Then they were washed twice with 0.1 mL of LTCC buffer, and replaced with 0.1 mL LTCC buffer. Plates were then transferred to a FLIPR^96 for assay. The FLIPR measured basal Fluo-4 fluorescence for 315 seconds, then added 0.1 mL KCl agonist dissolved in LTCC buffer and measured fluorescence for another 45 seconds. Final KCl concentration was 90 mM. Data were collected over the entire time course and analyzed using Excel, Graph Pad Prism, or Activity Base software. The clone with the greatest signal-to-noise ratio, best stability of response with passage number, and best adhesion to PDL precoated plates (Becton Dickinson) was expanded, characterized and used for stage 2 cell line development.
Stage 2 of L-type cell line development was carried out as follows. The rat α2δ cDNA expression construct (5 μg each) was transfected into the stage 1 L-type clonal cell line by Lipofectamine Plus reagent (Invitrogen), as per manufacturer's instructions. […]
For orientation: Calcium assays in cells follow changes in intracellular calcium, usually with a dye or a luminescent sensor.

T1 sequence (Q00975 whole entry): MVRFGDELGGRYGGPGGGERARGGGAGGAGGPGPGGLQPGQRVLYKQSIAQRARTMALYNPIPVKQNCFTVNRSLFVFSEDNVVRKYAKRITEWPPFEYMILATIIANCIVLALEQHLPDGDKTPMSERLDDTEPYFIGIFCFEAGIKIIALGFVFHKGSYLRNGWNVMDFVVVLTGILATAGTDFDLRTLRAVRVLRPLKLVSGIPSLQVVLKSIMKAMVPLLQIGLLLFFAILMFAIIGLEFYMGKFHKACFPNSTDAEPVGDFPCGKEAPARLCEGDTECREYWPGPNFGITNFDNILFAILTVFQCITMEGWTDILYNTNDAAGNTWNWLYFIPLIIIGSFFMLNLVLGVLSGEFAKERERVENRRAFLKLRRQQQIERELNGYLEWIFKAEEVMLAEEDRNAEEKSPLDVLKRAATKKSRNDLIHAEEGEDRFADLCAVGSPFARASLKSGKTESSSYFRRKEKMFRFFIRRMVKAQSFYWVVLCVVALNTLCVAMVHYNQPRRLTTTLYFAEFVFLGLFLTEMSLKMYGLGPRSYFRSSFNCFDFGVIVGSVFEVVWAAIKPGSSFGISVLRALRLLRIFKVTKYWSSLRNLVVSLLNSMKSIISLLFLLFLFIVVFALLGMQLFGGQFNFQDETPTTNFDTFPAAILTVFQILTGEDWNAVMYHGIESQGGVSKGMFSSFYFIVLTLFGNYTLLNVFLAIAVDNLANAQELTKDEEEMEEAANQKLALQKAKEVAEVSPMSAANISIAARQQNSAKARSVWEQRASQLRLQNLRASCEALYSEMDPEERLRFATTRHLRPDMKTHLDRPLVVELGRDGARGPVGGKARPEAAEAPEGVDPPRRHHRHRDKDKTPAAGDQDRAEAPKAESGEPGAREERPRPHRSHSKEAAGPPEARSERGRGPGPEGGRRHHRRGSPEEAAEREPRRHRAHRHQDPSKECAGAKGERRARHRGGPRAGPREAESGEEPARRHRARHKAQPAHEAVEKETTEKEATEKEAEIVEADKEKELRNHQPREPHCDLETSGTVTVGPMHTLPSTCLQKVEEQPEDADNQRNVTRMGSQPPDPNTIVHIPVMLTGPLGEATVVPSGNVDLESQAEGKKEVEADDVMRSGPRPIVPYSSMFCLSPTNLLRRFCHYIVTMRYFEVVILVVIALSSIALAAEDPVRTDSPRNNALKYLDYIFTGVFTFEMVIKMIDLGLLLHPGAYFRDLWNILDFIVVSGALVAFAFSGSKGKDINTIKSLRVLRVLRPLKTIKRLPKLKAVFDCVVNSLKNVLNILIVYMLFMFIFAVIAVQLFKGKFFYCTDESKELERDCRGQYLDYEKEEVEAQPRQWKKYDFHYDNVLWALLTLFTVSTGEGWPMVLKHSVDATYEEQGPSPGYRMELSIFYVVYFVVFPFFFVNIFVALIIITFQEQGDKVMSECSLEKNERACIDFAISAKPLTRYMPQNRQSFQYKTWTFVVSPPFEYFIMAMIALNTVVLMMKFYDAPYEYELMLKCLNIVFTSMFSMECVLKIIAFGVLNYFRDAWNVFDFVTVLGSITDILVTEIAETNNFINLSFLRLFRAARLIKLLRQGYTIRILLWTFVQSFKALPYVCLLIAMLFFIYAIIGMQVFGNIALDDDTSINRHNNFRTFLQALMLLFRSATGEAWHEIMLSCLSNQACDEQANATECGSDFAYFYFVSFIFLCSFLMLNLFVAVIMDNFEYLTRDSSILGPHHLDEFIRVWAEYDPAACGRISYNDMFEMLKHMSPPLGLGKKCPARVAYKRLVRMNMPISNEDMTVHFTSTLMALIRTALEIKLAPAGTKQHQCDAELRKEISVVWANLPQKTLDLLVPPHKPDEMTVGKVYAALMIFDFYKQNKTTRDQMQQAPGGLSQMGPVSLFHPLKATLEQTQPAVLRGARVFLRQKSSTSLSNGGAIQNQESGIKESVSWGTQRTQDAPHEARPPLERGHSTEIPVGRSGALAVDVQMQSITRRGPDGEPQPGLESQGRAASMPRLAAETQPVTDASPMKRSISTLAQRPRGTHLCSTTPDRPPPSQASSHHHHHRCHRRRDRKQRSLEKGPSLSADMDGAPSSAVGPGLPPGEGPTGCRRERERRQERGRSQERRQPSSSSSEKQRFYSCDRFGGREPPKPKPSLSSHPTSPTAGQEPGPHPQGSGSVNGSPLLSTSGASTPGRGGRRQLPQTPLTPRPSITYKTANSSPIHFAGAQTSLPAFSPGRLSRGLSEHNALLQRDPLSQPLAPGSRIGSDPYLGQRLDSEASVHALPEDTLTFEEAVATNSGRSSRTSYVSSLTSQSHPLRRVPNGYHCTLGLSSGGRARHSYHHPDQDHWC
T1 sequence (P54289 25-956 partner limits assumed): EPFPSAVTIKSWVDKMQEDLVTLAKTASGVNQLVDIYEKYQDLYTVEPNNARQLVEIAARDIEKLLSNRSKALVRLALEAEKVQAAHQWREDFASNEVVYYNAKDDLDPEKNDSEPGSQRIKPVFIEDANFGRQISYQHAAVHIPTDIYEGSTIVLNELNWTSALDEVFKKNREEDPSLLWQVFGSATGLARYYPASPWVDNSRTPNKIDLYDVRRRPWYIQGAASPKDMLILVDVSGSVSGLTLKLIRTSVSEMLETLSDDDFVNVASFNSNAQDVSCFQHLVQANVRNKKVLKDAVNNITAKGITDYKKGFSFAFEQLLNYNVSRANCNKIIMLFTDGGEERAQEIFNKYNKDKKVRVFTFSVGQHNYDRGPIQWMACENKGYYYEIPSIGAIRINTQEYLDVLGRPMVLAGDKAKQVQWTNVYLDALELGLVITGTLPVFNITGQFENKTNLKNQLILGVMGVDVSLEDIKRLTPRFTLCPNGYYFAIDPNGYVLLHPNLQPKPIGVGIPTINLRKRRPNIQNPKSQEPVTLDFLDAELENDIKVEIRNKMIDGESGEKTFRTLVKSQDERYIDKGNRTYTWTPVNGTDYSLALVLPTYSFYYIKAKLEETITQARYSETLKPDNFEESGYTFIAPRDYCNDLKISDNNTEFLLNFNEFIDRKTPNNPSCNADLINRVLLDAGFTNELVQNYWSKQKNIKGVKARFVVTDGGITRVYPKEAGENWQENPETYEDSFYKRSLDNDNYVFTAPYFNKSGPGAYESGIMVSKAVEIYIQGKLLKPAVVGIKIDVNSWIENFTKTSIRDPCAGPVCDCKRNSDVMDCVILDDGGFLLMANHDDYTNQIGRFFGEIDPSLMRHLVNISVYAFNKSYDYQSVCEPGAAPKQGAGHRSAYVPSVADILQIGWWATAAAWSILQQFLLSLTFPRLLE
T1 sequence (P54289 957-1103 partner limits assumed): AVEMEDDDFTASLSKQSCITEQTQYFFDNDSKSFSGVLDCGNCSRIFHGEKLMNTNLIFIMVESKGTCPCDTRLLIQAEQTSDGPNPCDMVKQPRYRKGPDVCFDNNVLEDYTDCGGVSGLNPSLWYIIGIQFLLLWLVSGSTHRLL
T1 sequence (P54284 whole entry partner): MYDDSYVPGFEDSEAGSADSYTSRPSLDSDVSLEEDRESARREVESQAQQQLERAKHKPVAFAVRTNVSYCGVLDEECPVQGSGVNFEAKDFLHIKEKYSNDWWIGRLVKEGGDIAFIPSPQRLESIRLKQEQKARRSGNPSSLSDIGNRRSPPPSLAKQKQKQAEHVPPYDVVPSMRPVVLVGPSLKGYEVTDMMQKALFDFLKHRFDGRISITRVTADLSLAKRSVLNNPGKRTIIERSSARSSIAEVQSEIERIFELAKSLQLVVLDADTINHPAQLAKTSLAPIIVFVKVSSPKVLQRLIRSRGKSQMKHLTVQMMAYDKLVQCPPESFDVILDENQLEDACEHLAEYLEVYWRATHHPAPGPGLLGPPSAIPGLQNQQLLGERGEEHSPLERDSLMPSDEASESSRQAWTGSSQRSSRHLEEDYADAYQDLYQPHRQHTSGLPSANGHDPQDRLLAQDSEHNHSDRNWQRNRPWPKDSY

Take `CC(C)CNC(=O)CN1CCCC(N(C2CC2)S(=O)(=O)c2cccc(C(F)(F)F)c2)C1` (stereo not drawn) [2-{3-[Cyclopropyl-(3-trifluoromethylbenzenesulfonyl)-amino]-piperidin-1-yl}-N-isobutyl-acetamide]: the values for the IC50 in experiment [1] and in experiment [2] were 430 nM and 9820 nM, respectively.

With `O=C(CN1CCCC(N(C2CC2)S(=O)(=O)c2cccc(C(F)(F)F)c2)C1)Nc1ccc(F)cc1` (stereo not drawn) [2-{3-[Cyclopropyl-(3-trifluoromethylbenzenesulfonyl)amino]-piperidin-1-yl}-N-(4-fluorophenyl)-acetamide], the IC50 in experiment [1] was 360 nM; in experiment [2], 6180 nM.

For the compound `CCN[C@@H](CC(C)C)C(=O)N1CCCC(N(C2CC2)S(=O)(=O)c2cccc(C(F)(F)F)c2)C1` (stereo partly drawn) [(2S)N-Cyclopropyl-N-[1-(2-ethylamino-4-methylpentanoyl)piperidin-3-yl]-3-trifluoromethylbenzenesulfonamide], the concentration for half-maximal inhibition (IC50) in experiment [1] came out at 130 nM; in experiment [2], 5070 nM.

As for `CN[C@@H](CC(C)C)C(=O)N1CCCC(N(C2CC2)S(=O)(=O)c2cccc(C(F)(F)F)c2)C1` (stereo partly drawn) [(2S)N-Cyclopropyl-N-[1-(4-methyl-2-methylaminopentanoyl)-piperidin-3-yl]-3-trifluoromethylbenzenesulfonamide], the figures for the IC50 in experiment [1] and in experiment [2] were 540 nM and 6580 nM, respectively.

Consider `CC(C)C[C@H](N)C(=O)N1CCCC(N(C2CC2)S(=O)(=O)c2cccc(C(F)(F)F)c2)C1` (stereo partly drawn) [(2S)N-[1-(2-Amino-4-methylpentanoyl)piperidin-3-yl]-N-cyclopropyl-3-trifluoromethylbenzenesulfonamide], for which the IC50 in experiment [1] was 1100 nM; in experiment [2] it was 6580 nM.

As for `CC(C)C[C@H](N)CC(=O)N1CCCC(N(C2CC2)S(=O)(=O)c2cccc(C(F)(F)F)c2)C1` (stereo partly drawn) [(2S)N-[1-(3-Amino-5-methylhexanoyl)piperidin-3-yl]-N-cyclopropyl-3-trifluoromethylbenzenesulfonamide], the IC50 is 280 nM in experiment [1] and 500 nM in experiment [2].

Take `O=C(CNCc1cccnc1)N1CCCC(N(C2CC2)S(=O)(=O)c2cccc(C(F)(F)F)c2)C1` (stereo not drawn) [N-Cyclopropyl-N-(1-{2-[(pyridin-3-ylmethyl)amino]acetyl}-piperidin-3-yl)-3-trifluoromethylbenzenesulfonamide]: the figures for the IC50 in experiment [1] and in experiment [2] were 1200 nM and more than 20000 nM, respectively.

For the compound `CC(C)CNCC(=O)N1CCCC(N(C2CC2)S(=O)(=O)c2cccc(C(F)(F)F)c2)C1` (stereo not drawn) [N-Cyclopropyl-N-[1-(2-isobutylaminoacetyl)piperidin-3-yl]-3-trifluoromethylbenzenesulfonamide], the IC50 in experiment [1] was determined as 690 nM; in experiment [2], 5750 nM.

As to `CC(C)CNCCC(=O)N1CCCC(N(C2CC2)S(=O)(=O)c2cccc(C(F)(F)F)c2)C1` (stereo not drawn) [N-Cyclopropyl-N-[1-(3-isobutylaminopropionyl)piperidin-3-yl]-3-trifluoromethylbenzenesulfonamide], the IC50 in experiment [1] came to 820 nM; in experiment [2] it was 5630 nM.

With `CC(C)NCCC(=O)N1CCCC(N(C2CC2)S(=O)(=O)c2cccc(C(F)(F)F)c2)C1` (stereo not drawn) [N-Cyclopropyl-N-[1-(3-isopropylaminopropionyl)piperidin-3-yl]-3-trifluoromethylbenzenesulfonamide], the figures for the IC50 in experiment [1] and in experiment [2] were 630 nM and 8770 nM, respectively.

With `COc1ccc(CNCC(=O)N2CCCC(N(C3CC3)S(=O)(=O)c3cccc(C(F)(F)F)c3)C2)cc1` (stereo not drawn) [N-Cyclopropyl-N-{1-[2-(4-methoxybenzylamino)acetyl]-piperidin-3-yl}-3-trifluoromethylbenzenesulfonamide], the IC50 in experiment [1] came to 420 nM; in experiment [2] it was 4650 nM.

Consider `COCCNCCC(=O)N1CCCC(N(C2CC2)S(=O)(=O)c2cccc(C(F)(F)F)c2)C1` (stereo not drawn) [N-Cyclopropyl-N-{1-[3-(2-methoxyethylamino)propionyl]piperidin-3-yl}-3-trifluoromethylbenzenesulfonamide], for which the IC50 is 810 nM in experiment [1] and 10000 to 20000 nM in experiment [2].

As usually defined, the IC50 is the concentration that gives 50% inhibition.

The record behind these values is patent US8247442B2, “Benzenesulfonamide compounds and their use” (Purdue Pharma L.P., priority 2006, dated 2012).
